kon data for two compounds are collected here from BindingDB's records for doi:10.1016/j.bmc.2018.12.038 (Peking University, 2019).

For the test, the target named is T1, CD81 antigen (Homo sapiens, UniProt P60033).
T1 sequence (P60033 whole entry): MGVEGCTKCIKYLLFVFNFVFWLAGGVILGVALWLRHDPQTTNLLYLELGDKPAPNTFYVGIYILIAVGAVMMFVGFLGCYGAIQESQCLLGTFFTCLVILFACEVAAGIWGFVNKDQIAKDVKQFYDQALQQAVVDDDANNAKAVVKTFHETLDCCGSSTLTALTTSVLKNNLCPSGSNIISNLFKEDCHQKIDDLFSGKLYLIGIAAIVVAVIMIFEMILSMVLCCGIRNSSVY
Description: Binding affinity to CD81 (unknown origin) assessed as […] rate constant by surface plasmon resonance assay. The settings on record: read-out: kon (M-1-s-1).

Each structure is given as a SMILES string.

In the case of `C/C(=C\CC[C@]1(C)[C@@H](C(=O)O)C[C@H]1[C@](C)(O)C(=O)O)C(=O)O`, the kon (in general, the second-order rate constant of association) was 2.53e+08 M⁻¹ s⁻¹.
Regarding `CC(=O)[C@@H]1C[C@H](C(=O)O)[C@@]1(C)CC/C=C(\C)C(=O)O`, the kon worked out at 2.02e+06 M⁻¹ s⁻¹.
